The format of data set [1] is physicochemical. As to the method: Hereinafter, unless specified otherwise the solubility of material is determined in reverse osmosis (RO) water at room temperature. Where the solubility is expressed as “%” it to be understood as number of grams of material soluble in 100 grams of solvent.
The temperature was increased at 1° C. per minute to 121° C. The mixture was maintained at 121° C. for 1 hour and then the temperature was decreased to 80° C., at 1° C. per minute, and the obtained solution was spray dried using YC-015 laboratory spray drier (Shanghai Pilotech Instrument & Equipment Co. Ltd., China) operating at 175° C. inlet and 100° C. outlet temperature. Solution was maintained at 80° C. to prevent premature crystallization.
Solubility were evaluated for Reb A, Reb B, mechanical blends of Reb A and Reb B powders of different ratios, and mixtures of Reb A and Reb B prepared according to process described in EXAMPLE 1.

Data set [2] in a line: Sweetness factor (SF) determination by trained panel in water. Conditions: in water, 5% SE. As to the method:
The sweetness factors for different sweetener from all major groups were measured by tasting several concentrations of each sweetener in water by trained panel. From the sensory test at a, the concentration (%) that corresponds to the 5% sucrose equivalent (SE) sweetness were estimated and listed in Table 2. The sweetness equivalent (SE) of high intensity sweeteners (HIS) varies according to the target sugar equivalent sweetness levels, that are tested as shown in Table 3.

For data set [3] the following is noted: room temperature; reported values; cited from earlier work.
Data set [4] can be described thus: Sugar equivalent sweetness of sweetener/Reb B combinations in plain water, trained panel. Conditions: plain water. As to the method: In one embodiment, Reb B was combined (at 50, 150 and 300 ppm) with several sweeteners listed in Table 2 to make solutions in plain water. Some of the sweeteners were tested at two different concentrations to obtain around 2% sugar equivalent sweetness without any Reb B. A trained panel conducted sensory tests to determine the effect of the addition of different amounts of Reb B to each sweetener on overall sweetness quality and intensity as shown in Table 4.

For data set [5] the following is noted: as usually found, literature; cited from earlier work.

Where two headings read alike, the source gives them in different places.

With Rebaudioside D [Reb D], the water solubility in data set [1] is given as 0.03%. Further, in data set [2], the “Calculated SF (sweetness factor)” value is listed as 291 and the “Usage Level, % (concentration corresponding to 5% sucrose equivalent sweetness)” value (“Usage Level, %” for short) is given as 0.0172%. In addition, the water solubility in data set [3] is 0.01-0.05%.

With `OC[C@@H](O)[C@@H](O[C@H]1O[C@H](CO)[C@@H](O)[C@H](O)[C@H]1O)[C@H](O)[C@@H](O)CO` [Maltitol], the “Calculated SF (sweetness factor)” value in data set [2] is 0.77. For the same molecule, in data set [2], the “Usage Level, %” value was found to be 6.44%. The “Sugar equivalent sweetness (SE) of Sweetener/Reb B combination” value in data set [4] (0 ppm Reb B) came to 5%; in data set [4] (50 ppm Reb B) it was 6%; in data set [4] (150 ppm Reb B), 9%; in data set [4] (300 ppm Reb B) it was 12%.

With `OC[C@@H](O)[C@@H](O)CO` [Erythritol], the “Calculated SF (sweetness factor)” value in data set [2] is listed as 0.67. In data set [2], the “Usage Level, %” value is recorded as 7.49%. Moreover, the “Sugar equivalent sweetness (SE) of Sweetener/Reb B combination” value is given as 1-1.5% in data set [4] (0 ppm Reb B, listed as Erythritol (3.5%)); 3% in data set [4] (0 ppm Reb B, listed as Erythritol (5.0%)); 3% in data set [4] (50 ppm Reb B, listed as Erythritol (3.5%)); 4% in data set [4] (50 ppm Reb B, listed as Erythritol (5.0%)); 5.5-6% in data set [4] (150 ppm Reb B, listed as Erythritol (3.5%)); 8% in data set [4] (150 ppm Reb B, listed as Erythritol (5.0%)). In addition, the “Sugar equivalent sweetness (SE) of Sweetener/Reb B combination” value in data set [4] (300 ppm Reb B, listed as Erythritol (3.5%)) stood at 9%; in data set [4] (300 ppm Reb B, listed as Erythritol (5.0%)), 9.5%.

Regarding `C[C@H](CC[C@@H](O[C@@H]1O[C@H](CO[C@@H]2O[C@H](CO)[C@@H](O)[C@H](O)[C@H]2O)[C@@H](O)[C@H](O)[C@H]1O[C@@H]1O[C@H](CO)[C@@H](O)[C@H](O)[C@H]1O)C(C)(C)O)[C@H]1CC[C@@]2(C)[C@@H]3CC=C4[C@@H](CC[C@H](O[C@@H]5O[C@H](CO[C@@H]6O[C@H](CO)[C@@H](O)[C@H](O)[C@H]6O)[C@@H](O)[C@H](O)[C@H]5O)C4(C)C)[C@]3(C)[C@H](O)C[C@]12C` [Mogroside V (70%), Mogroside V], the “Calculated SF (sweetness factor)” value in data set [2] is listed as 236. Also, in data set [2], the “Usage Level, %” value worked out at 0.0212%. The “Sugar equivalent sweetness (SE) of Sweetener/Reb B combination” value was 2.5% in data set [4] (0 ppm Reb B, listed as Mogroside V (100 ppm)); 5.5-6% in data set [4] (0 ppm Reb B, listed as Mogroside V (212 ppm)); 4% in data set [4] (50 ppm Reb B, listed as Mogroside V (100 ppm)); 7% in data set [4] (50 ppm Reb B, listed as Mogroside V (212 ppm)); 5.5% in data set [4] (150 ppm Reb B, listed as Mogroside V (100 ppm)); 9% in data set [4] (150 ppm Reb B, listed as Mogroside V (212 ppm)). Also, the “Sugar equivalent sweetness (SE) of Sweetener/Reb B combination” value in data set [4] (300 ppm Reb B, listed as Mogroside V (100 ppm)) is reported as 8-8.5%; in data set [4] (300 ppm Reb B, listed as Mogroside V (212 ppm)) it was 10-10.5%.

For the molecule `C=C1C[C@@]23CC[C@H]4[C@@](C)(CCC[C@@]4(C)C(=O)O[C@@H]4O[C@H](CO)[C@@H](O)[C@H](O)[C@H]4O)[C@@H]2CC[C@]1(O[C@@H]1O[C@H](CO)[C@@H](O)[C@H](O)[C@H]1O[C@@H]1O[C@@H](C)[C@H](O)[C@@H](O)[C@H]1O)C3` [Dulcoside A], the “times sweeter than sucrose” value in data set [5] is listed as 30 times.

Take `OC[C@H]1O[C@@](CO)(O[C@H]2O[C@H](CO)[C@@H](O)[C@H](O)[C@H]2O)[C@@H](O)[C@@H]1O` [Sugar]: in data set [2], the “Calculated SF (sweetness factor)” value is reported as 1 and the “Usage Level, %” value came out at 5%.

On to `C=C1C[C@@]23CC[C@H]4[C@@](C)(CCC[C@@]4(C)C(=O)O[C@@H]4O[C@H](CO)[C@@H](O)[C@H](O)[C@H]4O)[C@@H]2CC[C@]1(O[C@@H]1O[C@H](CO)[C@@H](O)[C@H](O[C@@H]2O[C@H](CO)[C@@H](O)[C@H](O)[C@H]2O)[C@H]1O[C@@H]1O[C@@H](C)[C@H](O)[C@@H](O)[C@H]1O)C3` [Rebaudioside C], for which the “times sweeter than sucrose” value in data set [5] is given as 40-60 times.

Regarding `OC[C@H]1O[C@H](O[C@]2(CCl)O[C@H](CCl)[C@@H](O)[C@@H]2O)[C@H](O)[C@@H](O)[C@H]1Cl` [Sucralose], in data set [2], the “Calculated SF (sweetness factor)” value was 602. Further, in data set [2], the “Usage Level, %” value is recorded as 0.0083%. Besides, the “Sugar equivalent sweetness (SE) of Sweetener/Reb B combination” value in data set [4] (0 ppm Reb B, listed as Sucralose 83 ppm) is 5%; in data set [4] (0 ppm Reb B, listed as Sucralose (40 ppm)) it was 2-2.5%; in data set [4] (50 ppm Reb B, listed as Sucralose 83 ppm), 7%; in data set [4] (50 ppm Reb B, listed as Sucralose (40 ppm)) it was 5%; in data set [4] (150 ppm Reb B, listed as Sucralose 83 ppm), 11%; in data set [4] (150 ppm Reb B, listed as Sucralose (40 ppm)), 7.5-8%. The “Sugar equivalent sweetness (SE) of Sweetener/Reb B combination” value in data set [4] (300 ppm Reb B, listed as Sucralose 83 ppm) is recorded as 14%; in data set [4] (300 ppm Reb B, listed as Sucralose (40 ppm)) it was 11%.

These data come from US12016355B2, “Stevia composition” (PURECIRCLE SDN BHD, priority 2011, dated 2024).
